The values below come from article PMC12686243, “Synthesis and preclinical evaluation of FAP-targeting radiotracers for PET and optical imaging” (EJNMMI Radiopharmacy and Chemistry, 2025).

Like-named read-outs stand apart in the source and are kept apart here.

The target in the assay is T1, hFAP (hFAP-HT1080 cells) (Homo sapiens, UniProt Q12884).
T1 construct: expressed in transfected cells; host or cells: HT1080 (human fibrosarcoma), lentiviral transduction
T1 sequence (Q12884 1-760): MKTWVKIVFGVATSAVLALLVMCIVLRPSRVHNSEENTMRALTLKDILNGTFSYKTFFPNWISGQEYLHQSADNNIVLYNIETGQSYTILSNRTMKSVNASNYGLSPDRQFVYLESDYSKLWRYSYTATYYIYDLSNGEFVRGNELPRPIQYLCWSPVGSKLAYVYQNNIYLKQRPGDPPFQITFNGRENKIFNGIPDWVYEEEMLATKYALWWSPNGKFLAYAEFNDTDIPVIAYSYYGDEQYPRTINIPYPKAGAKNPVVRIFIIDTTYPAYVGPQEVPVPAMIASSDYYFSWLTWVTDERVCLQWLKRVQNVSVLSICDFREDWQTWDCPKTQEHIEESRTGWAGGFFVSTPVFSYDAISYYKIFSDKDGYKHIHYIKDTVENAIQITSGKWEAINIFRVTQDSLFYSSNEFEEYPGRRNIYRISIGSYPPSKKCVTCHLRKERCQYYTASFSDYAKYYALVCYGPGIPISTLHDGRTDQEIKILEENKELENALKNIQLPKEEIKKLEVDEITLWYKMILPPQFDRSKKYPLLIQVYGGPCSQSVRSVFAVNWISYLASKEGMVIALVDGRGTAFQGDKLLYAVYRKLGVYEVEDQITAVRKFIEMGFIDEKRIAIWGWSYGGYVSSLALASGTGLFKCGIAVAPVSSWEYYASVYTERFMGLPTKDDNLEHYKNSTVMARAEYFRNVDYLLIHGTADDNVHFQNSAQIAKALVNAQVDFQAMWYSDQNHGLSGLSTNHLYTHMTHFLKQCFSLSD
Nature of the assay: saturation binding to hFAP-HT1080 cells. The settings on record: 60 min, 37 °C. The method, then: Saturation binding (n ≥ 3, in triplicates) was performed to estimate thermodynamic dissociation constants (KD) and number of binding sites (Bmax). hFAP-HT1080 were cultured under the conditions described above. On the day of the experiment, 48-well plates were kept at 37 °C in an incubation chamber. The medium was replaced with 200 µL CO2-independent medium, (Gibco #18045088, ThermoFisher Germany) for total binding (TB) conditions. For the assessment of nonspecific binding (NSB), the same medium was used, containing 14 µM of FAPI-04 (in DMSO, resulting in 0.007% v/v). After 15 min preincubation for TB/NSB, 200 µL of each eight serial 1:1 dilutions (75 to 0.12 nM) of the respective radioligand were added (in triplicate), resulting in a final concentration per well of 35–0.06 nM. Cells were incubated with the respective radioligand for 60 min at 37 °C. The incubation medium was discarded and the wells washed with ice-cold PBS (2x ~ 30 s). The cells were then lysed with 500 µL 0.1 M NaOH + 1% SDS. For radioactivity detection, 400 µL of lysate was measured in a gamma counter (Perkin Elmer Wizard 1480). Additionally, binding to polystyrene in absence of cells was determined in 400 µL of lysate, along with the activity of all dilutions (50 µL). However, intrinsic plastic adherence of both compounds was very low. All counts were decay-corrected to a reference time (end of radiolabeling). Protein content was determined in an additional plate, subjected to the same conditions (pre-incubation, incubation and washing) by BCA assay and a mean value (µg/mL) used for this particular dataset (all replicate plates). From CPM measurements, final values (pmol/mg protein) were calculated using mean protein content and molar activity. Similarly, lysates from a random plate were subjected to fluorescent detection. For that purpose, 100 µL were pipetted bubble free into a transparent bottom 96 well imaging plate (Greiner Bio-One, µclear #655087). The plate was then imaged on a Typhoon 9500 bio imager (GE, USA) using either the Cy5 or IR-long filter-set (350–500 PMT voltage). From these images, fluorescence density (counts/mm^2) was determined (Bio-Rad, Quantity One 4.6.8). All processed data was then subjected to non-linear iterative curve fitting (GraphPad Prism 10) to yield Bmax (in pmol/mg protein or CNT/mm^2) and KD (in nM).

Where [1] appears, read: n = 1, read-out: KD, fluorescent label detection, best fit.
The mark [2] stands for this setting: nonspecific binding with 14 µM FAPI-04, n = 3.
The mark [3] stands for this setting: nonspecific binding with 14 µM FAPI-04, n = 3, read-out: KD, radioactive label detection, best fit.

`CN(CCCN1CCN(C(=O)[C@H](CCCCNC(=O)CC[C@H](C(=O)[O-])N2CCN(CC(=O)[O-])CCN(CC(=O)[O-])CC2)NC(=O)CCOCCOCCOCCOCCNC(=O)CCCCCN2C(=CC=C3CCCC(C=CC4=[N+](CCCCS(=O)(=O)[O-])c5ccc(S(=O)(=O)O)cc5C4(C)C)=C3Oc3ccc(S(=O)(=O)O)cc3)C(C)(C)c3cc(S(=O)(=O)O)ccc32)CC1)c1ccc2nccc(C(=O)NCC(=O)N3CC(F)(F)C[C@H]3C#N)c2c1.[68Ga+3]` [[^68Ga]Ga-NODAGA-FAP800]: the “Bmax, fluorescent label detection, best fit” value (n = 1) is listed as 5.7 * 10^5 AU. The Kd is, setting by setting: under setting [1], 1.24 nM; under setting [3], 1.65 nM. Moreover, the “Bmax, radioactive label detection, best fit” value under setting [2] is 1.41 pmol/mg/protein.
For `CN(CCCN1CCN(C(=O)[C@H](CCCCNC(=O)CC[C@H](C(=O)[O-])N2CCN(CC(=O)[O-])CCN(CC(=O)[O-])CC2)NC(=O)CCOCCOCCOCCOCCNC(=O)CCCCC[N+]2=C(C=CC=CC=C3N(CCCS(=O)(=O)O)c4ccc(S(=O)(=O)O)cc4C3(C)C)C(C)(CCCS(=O)(=O)O)c3cc(S(=O)(=O)[O-])ccc32)CC1)c1ccc2nccc(C(=O)NCC(=O)N3CC(F)(F)C[C@H]3C#N)c2c1.[68Ga+3]` (some centres unmarked) [[^68Ga]Ga-NODAGA-FAP647], in that order: 4.8 * 10^5 AU, 0.76 nM, 0.99 nM and 1.63 pmol/mg/protein.

The Kd is the constant that tells how readily two partners part at equilibrium.
